In one assay the target is T1, ABCG2 (Homo sapiens, UniProt Q9UNQ0).
T1 sequence (Q9UNQ0 1-655): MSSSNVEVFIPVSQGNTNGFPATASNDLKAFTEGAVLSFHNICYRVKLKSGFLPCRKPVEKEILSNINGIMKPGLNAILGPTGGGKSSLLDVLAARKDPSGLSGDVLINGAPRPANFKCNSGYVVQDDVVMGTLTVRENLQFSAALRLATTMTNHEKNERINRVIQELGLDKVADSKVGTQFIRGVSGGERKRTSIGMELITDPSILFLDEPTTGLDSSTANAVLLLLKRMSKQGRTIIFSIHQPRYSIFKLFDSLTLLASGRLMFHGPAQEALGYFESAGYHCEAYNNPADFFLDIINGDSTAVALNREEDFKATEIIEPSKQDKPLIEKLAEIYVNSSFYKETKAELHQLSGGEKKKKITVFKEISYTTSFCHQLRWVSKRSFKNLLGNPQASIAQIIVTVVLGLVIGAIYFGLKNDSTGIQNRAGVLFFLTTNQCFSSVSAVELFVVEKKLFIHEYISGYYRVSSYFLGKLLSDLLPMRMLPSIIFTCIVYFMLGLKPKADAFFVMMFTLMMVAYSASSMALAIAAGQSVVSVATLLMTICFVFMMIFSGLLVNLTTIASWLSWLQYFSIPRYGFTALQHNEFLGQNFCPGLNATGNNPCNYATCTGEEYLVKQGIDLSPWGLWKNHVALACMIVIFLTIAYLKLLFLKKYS
Nature of the assay: vanadate-sensitive ATPase stimulation in insect cell membranes expressing ABCG2. It counts as biochemical.

In the next assay the target is ABCB1 (Homo sapiens, UniProt P08183). As to the kind of experiment: vanadate-sensitive ATPase stimulation in insect cell membranes expressing ABCB1. It counts as biochemical.

For orientation: EC50 means the midpoint of the concentration-response curve. Low readings indicate greater potency, high ones weaker potency.

Sequence of ABCB1 (P08183 whole entry): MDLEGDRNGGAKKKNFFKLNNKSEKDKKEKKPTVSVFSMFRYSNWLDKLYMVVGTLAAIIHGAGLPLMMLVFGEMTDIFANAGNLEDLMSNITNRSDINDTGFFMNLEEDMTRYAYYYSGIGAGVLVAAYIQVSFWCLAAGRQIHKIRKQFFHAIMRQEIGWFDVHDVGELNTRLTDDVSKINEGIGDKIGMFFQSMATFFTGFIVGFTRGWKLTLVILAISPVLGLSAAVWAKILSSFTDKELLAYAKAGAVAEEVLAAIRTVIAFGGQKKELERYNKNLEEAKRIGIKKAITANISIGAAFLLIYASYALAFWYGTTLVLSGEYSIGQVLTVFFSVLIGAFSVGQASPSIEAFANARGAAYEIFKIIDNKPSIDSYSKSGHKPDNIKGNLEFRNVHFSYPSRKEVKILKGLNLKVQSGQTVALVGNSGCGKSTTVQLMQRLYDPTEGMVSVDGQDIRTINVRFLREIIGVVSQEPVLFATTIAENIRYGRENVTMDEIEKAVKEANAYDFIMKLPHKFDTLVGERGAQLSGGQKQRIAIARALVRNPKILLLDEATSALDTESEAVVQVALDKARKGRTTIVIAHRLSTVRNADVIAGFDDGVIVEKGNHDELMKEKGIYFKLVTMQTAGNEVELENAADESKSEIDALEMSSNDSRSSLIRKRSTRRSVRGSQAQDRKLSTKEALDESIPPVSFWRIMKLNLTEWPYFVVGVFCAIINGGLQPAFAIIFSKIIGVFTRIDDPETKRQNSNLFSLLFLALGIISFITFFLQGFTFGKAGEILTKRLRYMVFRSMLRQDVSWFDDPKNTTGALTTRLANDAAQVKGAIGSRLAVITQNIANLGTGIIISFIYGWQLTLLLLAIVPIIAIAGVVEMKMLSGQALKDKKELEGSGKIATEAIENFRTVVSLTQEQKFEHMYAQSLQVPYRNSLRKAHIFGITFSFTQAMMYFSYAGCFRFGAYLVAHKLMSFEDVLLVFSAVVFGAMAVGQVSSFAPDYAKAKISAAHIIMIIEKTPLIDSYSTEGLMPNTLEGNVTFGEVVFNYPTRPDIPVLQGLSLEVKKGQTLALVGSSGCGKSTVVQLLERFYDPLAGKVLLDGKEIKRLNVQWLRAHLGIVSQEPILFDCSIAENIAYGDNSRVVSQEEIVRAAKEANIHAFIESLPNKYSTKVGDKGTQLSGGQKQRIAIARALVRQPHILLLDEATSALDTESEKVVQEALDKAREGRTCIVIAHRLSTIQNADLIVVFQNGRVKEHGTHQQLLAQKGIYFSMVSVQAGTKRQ

Consider `Cn1cc(-c2cc3c(N4CCN(c5ncc([C@@](C)(N)c6ccc(F)cc6)cn5)CC4)ncnn3c2)cn1` [avapritinib], for which the EC50 is ~200 nM on ABCG2 and ~5000 nM on ABCB1.

The values are drawn from paper PMC6620786 (Molecular pharmaceutics, 2019).
